By inhibition is commonly meant how much of the control response was suppressed.

Structures can show the parent of a compound that is named as a salt.

Assay [1] has as its target T1, limbic D-2 dopamine receptor (Rattus norvegicus, UniProt P61169).
T1 construct: Limbic brain tissue (nucleus accumbens, septal area, olfactory tubercle) is dissected; from tissue; host or cells: rat limbic brain tissue (nucleus accumbens, septal area, olfactory tubercle) homogenate
Put plainly: biochemical. The class given is binding, rats. To be noted: for Ki: Table 1, 0.3 nM 3H-spiroperidol, rat limbic brain tissue, read-out: Limbic D-2 Binding (KinM); for inhibition at 1 µM: read-out: Limbic D-2 Binding, % inhibition at 1 µM.

Assay [2] relates to avoidance responding. In words: conditioned avoidance (shelf-jump response) test. To be noted: for Active at mg/kg: i.p. The class given is in vivo, Male CD rats. The method, then:
Another test designed to determine the potential antipsychotic activity of the compounds of the invention is the conditioned avoidance (shelf-jump response) test.
This test is carried out as follows: Male CD rats (Charles River) maintained at approximately 400-450 gm body weight are used. Previously trained rats are placed in plexiglass experimental chambers divided into two sections; a main chamber (10 1/2" x 6 3/4" x 11 7/8" high) and an elevated chamber or shelf (5 7/8" x 6 7/8" x 5 3/4"). A moveable wall, controlled by a motor, determines whether the rat has access to the shelf at any time during the experiment. The experimental chamber also contains a house light and sonalert. A steel grid floor in the main chamber is wired for presentation of electric shock. Each trial consists of a fifteen-second warning tone (conditioned stimulus), continuing for an additional fifteen seconds accompanied by electric shock, (unconditioned stimulus). A response (jumping onto the exposed shelf of the upper chamber) occurring during the initial fifteen-second warning tone is considered an avoidance response, while a response occurring during shock delivery is considered an escape response. Trials are presented on a fixed interval schedule of one minute. The session consists of thirty-six trials. Animals are run twice weekly with control sessions always preceding a drug run, and with at least one day intervening. Compounds are administered i.p. or p.o. at appropriate pre-treatment times to a minimum of five rats at each dose level over a range of doses.
The following experimental parameters are recorded by computer: (1) the number of avoidance responses, (2) the number of escape responses, and (3) the number of trials in which no response occurred.
(§1) Response counts are summed over all subjects at a given dose. […] This number is expressed as a percentage of the total trials. Control performance is arbitrarily assigned a value of 100% for avoidance and the dose calculated to produce a 50% block in avoidance responding (AB₅₀) is obtained from a dose-effect regression line fitted by the method of least squares. Potential antipsychotic compounds suppress avoidance responding and increase escape responding.

In assay [3] the test system is avoidance responding. Put plainly: conditioned avoidance (discrete trial) test. The class given is in vivo, Male CD rats. To be noted: for ED50: Rattus norvegicus. As to the method: The antipsychotic activity of the compounds of the invention is assessed via the conditioned avoidance (discrete trial) test. This test has excellent clinical correlation for antipsychotic activity.
The test is carried out as follows: Male CD rats (Charles River) maintained at approximately 400-450 gm body weight are used. Rats trained previously are placed in plexiglass experimental chambers equipped with a response lever, house light, and sonalert. A steel grid floor is wired for presentation of electric shock. Each trial consists of a fifteen-second warning tone (conditioned stimulus), continuing for an additional fifteen seconds accompanied by electric shock, (unconditioned stimulus). The rat can terminate a trial at any point by depression of the response lever. As response during the initial fifteen-second warning tone ends the trial before shock delivery and is considered avoidance response, while a response occurring during shock delivery is an escape response. Trials are presented on a variable interval schedule of two minutes. The session consists of sixty trials. Animals are run two to three times weekly with control sessions always preceding a drug run, and with at least one day intervening, compounds are administered i.p. or p.o. at appropriate pre-treatment times to a minimum of five to six rats at each dose level over a range of doses.
as §1

Setting [4] is: ip, standard compounds, dose producing 50% block in avoidance responding, read-out: AB50 (the source's name).

T1 sequence (P61169 whole entry): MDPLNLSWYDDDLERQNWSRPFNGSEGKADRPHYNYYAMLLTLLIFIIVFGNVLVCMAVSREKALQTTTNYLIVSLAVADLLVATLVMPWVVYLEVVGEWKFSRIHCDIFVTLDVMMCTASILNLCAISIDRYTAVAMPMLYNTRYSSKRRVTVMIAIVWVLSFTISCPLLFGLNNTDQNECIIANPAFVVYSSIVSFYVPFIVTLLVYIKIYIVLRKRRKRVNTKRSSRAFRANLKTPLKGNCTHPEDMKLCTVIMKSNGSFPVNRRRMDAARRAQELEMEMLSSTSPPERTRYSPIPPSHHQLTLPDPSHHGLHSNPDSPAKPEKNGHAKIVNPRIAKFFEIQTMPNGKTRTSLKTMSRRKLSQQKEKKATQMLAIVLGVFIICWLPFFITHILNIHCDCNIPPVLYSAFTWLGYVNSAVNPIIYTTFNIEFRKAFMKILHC

As to `Cl.O.O=C1C2C3C=CC(C4CC34)C2C(=O)N1CCCCN1CCN(c2nccnc2Cl)CC1` (centres unmarked) [Example 19, 2-[4-[4-(3-Chloro-2-pyrazinyl)-1-piperazinyl]butyl]hexahydro-4,6-ethenocycloprop[f]isoindole-1,3(2H,3aH)-dione, hydrochloride, hydrate], the Ki in assay [1] came out at 54 nM. Moreover, the Active at mg/kg with avoidance responding [2] is listed as 40 (i.p.) mg/kg.
`O=C1C2C3C=CC(C4CCC34)C2C(=O)N1CCCCN1CCN(c2nccnc2Cl)CC1` (centres unmarked) [Example 10, 2-[4-[4-(3-Chloro-2-pyrazinyl)-1-piperazinyl]butyl] octahydro-4,7-etheno-1H-cyclobut[f]isoindole-1,3(2H)--dione, dihydrochloride, hydrate]: the Active at mg/kg with avoidance responding [2] is 40 (i.p.) mg/kg.
Turning to `Cl.O.O=C1C2C3C=CC(CCC3)C2C(=O)N1CCCCN1CCN(c2cncc(Cl)n2)CC1` (centres unmarked) [Example 22, 2-[4-[4-(6-Chloro-2-pyrazinyl)-1-piperazinyl]butyl]-4,5,6,7,8,8a-hexahydro-4,8-ethenocyclohepta[c]pyrrole-1,3(2H,3aH)-dione, hydrochloride, hydrate], the inhibition at 1 µM in assay [1] amounted to 43%. Further, in the assay with avoidance responding [3] (po, read-out: Active at mg/kg (AB50 value)), the ED50 stood at 68.4 mg/kg. Further, the Active at mg/kg in the assay on avoidance responding [2] is 40 (i.p.) mg/kg.
Consider `O=C1C2C3C=CC(C4C=CC43)C2C(=O)N1CCCCN1CCN(c2ccc(Cl)nn2)CC1` (centres unmarked) [Example 11, 3a,4,4a,6a,7,7a-Hexahydro-2-[4-[4-(6-chloro-3-pyridazinyl)-1-piperazinyl]butyl]4,7-etheno-1H--cyclobut[f]isoindole-1,3(2H)-dione, hydrochloride, hydrate], for which the Active at mg/kg with avoidance responding [2] was 40 (i.p.) mg/kg.
On to `Cl.Cl.O.O=C1C2C3C=CC(C4C=CC43)C2C(=O)N1CCCCN1CCN(c2ccc(C(F)(F)F)cn2)CC1` (centres unmarked) [Example 28, 3a,4,4a,6a,7,7a-Hexahydro-2-[4-[4-(5-trifluoromethyl-2-pyridinyl)-1-piperazinyl]-butyl]-4,7-etheno-1H-cyclobut[f]isoindole-1,3(2H)-dione, dihydrochloride, hydrate], for which the Active at mg/kg in the assay with avoidance responding [2] is recorded as 40 (i.p.) mg/kg.
With `Cl.O.O=C1C2C3C=CC(CCCC3)C2C(=O)N1CCCCN1CCN(c2nccnc2Cl)CC1` (centres unmarked) [Example 20, 2-[4-[4-(3-Chloro-2-pyrazinyl)-1-piperazinyl]butyl]octahydro-4,9-etheno-1H-cycloocta[c]pyrrole-1,3(2H)-dione, hydrochloride, hydrate], in assay [1], the inhibition at 1 µM amounted to 78%. In the assay on avoidance responding [2], the Active at mg/kg is recorded as 40 (i.p.) mg/kg.
For `O=C1C2C3C=CC(C3)C2C(=O)N1CCCCN1CCN(c2ccc(Cl)nn2)CC1` (centres unmarked) [Example 17, 2-[4-[4-(6-Chloro-3-pyridazinyl-1-piperazinyl]butyl]-3a,4,7,7a-tetrahydro-4,7-methano-1H-isoindole-1,3-(2H)-dione, hydrochloride, dihydrate], in assay [1], the inhibition at 1 µM is 19%. Besides, in the assay on avoidance responding [2], the Active at mg/kg was 40 (i.p.) mg/kg.
On the same counts, the results for `Cl.O=C1C2C3CCC(C4CC43)C2C(=O)N1CCCCN1CCN(c2nccnc2Cl)CC1` (centres unmarked) [Example 26, 2-[4-[4-(3-Chloro-2-pyrazinyl)-1-piperazinyl]butyl]hexahydro-4,6-ethanocycloprop[f]isoindole-1,3(2H,3aH)-dione, hydrochloride] are 75% and 40 (i.p.) mg/kg.
`O=C1C2C3C=CC(C4C=CC43)C2C(=O)N1CCCCN1CCN(c2nccnc2Cl)CC1` (centres unmarked) [Example 12, 3a,4,4a,6a,7,7a-Hexahydro-2-[4-[4-(3-chloro-2-pyrazinyl-1-piperazinyl]butyl]4,7-etheno-1H-cyclobut[f]isoindole-1,3(2H)-dione, hydrochloride, dihydrate]: the Active at mg/kg in the assay on avoidance responding [2] was 40 (i.p.) mg/kg.
Consider `O=C1C2C3C=CC(C4C=CC43)C2C(=O)N1CCCCN1CCN(c2cncc(Cl)n2)CC1` (centres unmarked) [Example 4, 3a,4,4a,6a,7,7a-Hexahydro-2-[4-[4-(6-chloro-2-pyrazinyl)-1-piperazinyl]butyl]-4,7-etheno-1H-cyclobut[f]isoindole-1,3(2H)-dione, dihydrochloride, sesquihydrate], for which the Active at mg/kg in the assay with avoidance responding [2] is on record as 40 (i.p.) mg/kg.
In the case of `O=C1C2C3CCC(C4CCC43)C2C(=O)N1CCCCN1CCN(c2cncc(Cl)n2)CC1` (centres unmarked) [Example 5, 2-[4-[4-(6-Chloro-2-pyrazinyl-1-piperazinyl]butyl]octahydroo-4,7-ethano-1H-cyclobut[f]isoindole-1,3-(2H)-dione, hydrochloride, hemihydrate], the Active at mg/kg in the assay with avoidance responding [2] is given as 40 (i.p.) mg/kg.
On to `O=C(CCCN1CCC2(CC1)C(=O)NCN2c1ccccc1)c1ccc(F)cc1` [Spiperone, reference compound], for which the ED50 with avoidance responding [3] (setting [4]) is 0.13 mg/kg.
`O=C1C2C3C=CC(C4CC34)C2C(=O)N1CCCCN1CCN(c2ncccn2)CC1` (centres unmarked) [Example 2, 4,4a,5,5a,6,6a-Hexahydro-2-[4-[4-(2-pyrimidinyl)-1-piperazinyl]butyl]-4,6-ethenocycloprop[f]isoindole-1,3-(2H,3aH)-dione,dihydrochloride, hydrate]: the Active at mg/kg with avoidance responding [2] is 40 (i.p.) mg/kg.
As to `Cl.O=C1C2C3CCC(C4CC43)C2C(=O)N1CCCCN1CCN(c2cncc(Cl)n2)CC1` (centres unmarked) [Example 25, 2-[4-[4-(6-Chloro-2-pyrazinyl)-1-piperazinyl]butyl]hexahydro-4,6-ethanocycloprop[f]isoindole-1,3(2H,3aH)-dione, hydrochloride], in assay [1], the inhibition at 1 µM came to 49%. Besides, the Active at mg/kg in the assay with avoidance responding [2] is recorded as 40 (i.p.) mg/kg.
In the case of `CSc1ccc2c(c1)N(CCC1CCCCN1C)c1ccccc1S2` (centres unmarked) [Thioridazine, reference compound], in the assay on avoidance responding [3] (setting [4]), the ED50 is 8.61 mg/kg.
With `O=C1CC2(CCCC2)CC(=O)N1CCCCN1CCN(c2ncccn2)CC1` [Buspirone, 8-[4-[4-(2-pyrimidinyl)-1-piperazinyl]butyl]-8-azaspiro[4.5]decane-7,9-dione, reference compound], the ED50 with avoidance responding [2] (Rattus norvegicus, ip, standard compounds, read-out: AB50 (the source's name)) came out at 9.94 mg/kg.
As to “2-[4-[4-(2-Pyrimidinyl)-1-piperazinyl]butyl]octahydro-4,7ethano-1H-cyclobut[f]isoindole-1,3-(2H)-dione, dihydrochloride, sesquihydrate [Example 6]”, the Active at mg/kg with avoidance responding [3] (p.o., active dose, no AB50) is on record as 40 (p.o.) mg/kg; with avoidance responding [2] it was 40 (i.p.) mg/kg.
As for `O=C(CCCN1CCC(O)(c2ccc(Cl)cc2)CC1)c1ccc(F)cc1` [Haloperidol, reference compound], in the assay on avoidance responding [3] (setting [4]), the ED50 amounted to 0.18 mg/kg.
For `Cl.Cl.O=C1C2C3CCCC(CC3)C2C(=O)N1CCCCN1CCN(c2ncccn2)CC1` (centres unmarked) [Example 29, 4,5,6,7,8,8a-Hexahydro-2-[4-[4-(2-pyrimidinyl)-1-piperazinyl]butyl]-4,8-ethanocyclohepta[c]pyrrole-1,3(2H,3aH)-dione, dihydrochloride], the Active at mg/kg in the assay on avoidance responding [2] is 40 (i.p.) mg/kg.
The same measure, in the same setting: the result for `O=C1C2C3C=CC(C4CC34)C2C(=O)N1CCCCN1CCN(c2ccc(Cl)nn2)CC1` (centres unmarked) [Example 9, 2-[4-[4-(6-Chloro-3-pyridazinyl)-1-piperazinyl]butyl]hexahydro-4,6-ethenocycloprop[f]isoindole-1,3-(2H,3H)-dione, hydrochloride] reads 40 (i.p.) mg/kg.
As for `O=C1C2C3CCCCC(CC3)C2C(=O)N1CCCCN1CCN(c2cncc(Cl)n2)CC1` (centres unmarked) [Example 14, hydrochloride, hemihydrate], the Ki in assay [1] was found to be 440 nM. Also, in the assay with avoidance responding [2], the Active at mg/kg is 40 (i.p.) mg/kg.
Regarding `O=C1C2C3C=CC(C4CCC34)C2C(=O)N1CCCCN1CCN(c2cncc(Cl)n2)CC1` (centres unmarked) [Example 15, 2-[4-[4-(6-Chloro-2-pyrazinyl)-1-piperazinyl]butyl]-octahydro-4,7-etheno-1H-cyclobut[f]isoindol-1,3-(2H)-dione, hydrochloride], the Ki in assay [1] was determined as 413 nM. For the same compound, in the assay on avoidance responding [2], the Active at mg/kg is 40 (i.p.) mg/kg.

The values above are taken from patent publication EP0220873B1, “Fused bicyclic imides with psychotropic activity” (priority 1985, dated 1987).
